{"source": "patent US10730874B2", "about": "(Shire Human Genetic Therapies, Inc., priority 2018, dated 2020)"}
{"target": "human activated kallikrein enzyme (plasma kallikrein) (Homo sapiens (Human), UniProt P03952)", "sequence (P03952 391-638)": "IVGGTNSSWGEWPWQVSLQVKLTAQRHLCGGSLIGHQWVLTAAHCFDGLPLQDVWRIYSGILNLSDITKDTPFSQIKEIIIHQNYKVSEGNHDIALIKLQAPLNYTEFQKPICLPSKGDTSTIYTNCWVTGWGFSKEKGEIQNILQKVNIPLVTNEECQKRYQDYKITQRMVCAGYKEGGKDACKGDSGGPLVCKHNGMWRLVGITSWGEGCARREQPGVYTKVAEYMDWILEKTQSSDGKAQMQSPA", "sequence (P03952 20-390 partner)": "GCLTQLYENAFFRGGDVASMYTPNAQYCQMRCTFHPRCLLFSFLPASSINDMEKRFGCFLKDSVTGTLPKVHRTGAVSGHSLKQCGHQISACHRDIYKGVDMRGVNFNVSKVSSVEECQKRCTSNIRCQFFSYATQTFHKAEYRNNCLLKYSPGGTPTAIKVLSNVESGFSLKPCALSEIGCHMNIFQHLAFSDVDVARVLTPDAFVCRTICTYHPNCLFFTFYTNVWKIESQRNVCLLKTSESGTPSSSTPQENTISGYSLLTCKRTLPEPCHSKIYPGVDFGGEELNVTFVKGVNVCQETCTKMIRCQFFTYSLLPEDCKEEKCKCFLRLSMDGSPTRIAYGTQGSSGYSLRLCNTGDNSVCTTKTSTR", "assay": "Inhibition of human activated plasma kallikrein, fluorogenic peptide substrate assay, 500 pM enzyme format", "type": "biochemical", "conditions": "500 pM activated kallikrein enzyme, 300 uM Pro-Phe-Arg-7-amido-4-methylcoumarin substrate, 30 min preincubation, 10 min at RT; read-out: Primary Dose Response Assay: Average EC50", "summary_of_the_method": "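Buffer 20 mM Tris pH 7.5, EDTA, NaCl, PEG-400, Triton X-100; 300 uM Pro-Phe-Arg-AMC; enzyme–inhibitor preincubation 30 min RT. Format one: 500 pM kallikrein, 10 min RT reaction; format two: 5 pM kallikrein, 18 h RT reaction. Fluorescence read at 460 nm (380 nm excitation).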", "units": {"EC50": "nM"}}
{"molecule": "COC(=O)C1(Cc2cc(C3CC3)cn3cc(Cn4cc(C(=O)NCc5ncn6ccc(Cl)c(F)c56)nn4)nc23)CCCC1", "note": "[Example I-221a, methyl 1-((2-((4-(((7-chloro-8-fluoroimidazo[1,5-a]pyridin-1-yl)methyl)carbamoyl)-1H-1,2,3-triazol-1-yl)methyl)-6-cyclopropylimidazo[1,2-a]pyridin-8-yl)methyl)cyclopentane-1-carboxylate]", "EC50": "< 1"}
{"molecule": "NCc1cc(C2CC2)cn2cc(Cn3cc(C(=O)NCc4ncn5ccc(Cl)c(F)c45)nn3)nc12", "note": "[Example I-298, 1-((8-(aminomethyl)-6-cyclopropylimidazo[1,2-a]pyridin-2-yl)methyl)-N-((7-chloro-8-fluoroimidazo[1,5-a]pyridin-1-yl)methyl)-1H-1,2,3-triazole-4-carboxamide]", "EC50": "< 1"}
{"molecule": "O=C(NCc1ncn2ccc(Cl)cc12)c1cnn(Cc2cn3cc(C4CC4)cc(C4(O)COC4)c3n2)c1", "note": "[Example I-122, N-((7-chloroimidazo[1,5-a]pyridin-1-yl)methyl)-1-((6-cyclopropyl-8-(3-hydroxyoxetan-3-yl)imidazo[1,2-a]pyridin-2-yl)methyl)-1H-pyrazole-4-carboxamide]", "EC50": "< 1"}
{"molecule": "O=C(NCc1ncn2ccc(Cl)cc12)c1nnc(Cc2cn3cc(C4CC4)ccc3n2)s1", "note": "[Example I-70, N-((7-chloroimidazo[1,5-a]pyridin-1-yl)methyl)-5-((6-cyclopropylimidazo[1,2-a]pyridin-2-yl)methyl)-1,3,4-thiadiazole-2-carboxamide]", "EC50": "10 to 100"}
{"molecule": "O=C(NCc1ncn2ccc(Cl)cc12)c1cn(Cc2cn3cc(C4CC4)ccc3n2)nc1Cc1nn[nH]n1", "note": "[Example I-126, 3-((2H-tetrazol-5-yl)methyl)-N-((7-chloroimidazo[1,5-a]pyridin-1-yl)methyl)-1-((6-cyclopropylimidazo[1,2-a]pyridin-2-yl)methyl)-1H-pyrazole-4-carboxamide]", "EC50": "< 1"}
{"molecule": "C#Cc1c(C2CC2)ccc2nc(Cn3cc(C(=O)NCc4ncn5ccc(Cl)cc45)cn3)cn12", "note": "[Example I-79, N-((7-chloroimidazo[1,5-a]pyridin-1-yl)methyl)-1-((6-cyclopropyl-5-ethynylimidazo[1,2-a]pyridin-2-yl)methyl)-1H-pyrazole-4-carboxamide]", "EC50": "1 to 10"}
{"molecule": "CCOC(=O)c1c(Cn2cc(C(=O)NCc3ncn4ccc(Cl)c(F)c34)nn2)cc2ccc(C3CC3)cn12", "note": "[Example I-268, ethyl 2-((4-(((7-chloro-8-fluoroimidazo[1,5-a]pyridin-1-yl)methyl)carbamoyl)-1H-1,2,3-triazol-1-yl)methyl)-6-cyclopropylindolizine-3-carboxylate]", "EC50": "1 to 10"}
{"molecule": "O=C(NCc1ncn2ccc(Cl)c(F)c12)c1nnc(Cc2cn3nc(C4CC4)ccc3n2)o1", "note": "[Example I-156, N-((7-chloro-8-fluoroimidazo[1,5-a]pyridin-1-yl)methyl)-5-((6-cyclopropylimidazo[1,2-b]pyridazin-2-yl)methyl)-1,3,4-oxadiazole-2-carboxamide]", "EC50": "< 1"}
{"molecule": "O=C(O)c1cnn(-c2cc(C3CC3)cn3cc(Cn4cc(C(=O)NCc5ncn6ccc(Cl)c(F)c56)nn4)nc23)c1", "note": "[Example I-230, 1-(2-((4-(((7-chloro-8-fluoroimidazo[1,5-a]pyridin-1-yl)methyl)carbamoyl)-1H-1,2,3-triazol-1-yl)methyl)-6-cyclopropylimidazo[1,2-a]pyridin-8-yl)-1H-pyrazole-4-carboxylic acid]", "EC50": "< 1"}
{"molecule": "O=C(NCc1ncn2ccc(Cl)c(F)c12)c1nnn(Cc2cn3cc(C4CC4)ccc3n2)n1", "note": "[Example I-283, N-((7-chloro-8-fluoroimidazo[1,5-a]pyridin-1-yl)methyl)-2-((6-cyclopropylimidazo[1,2-a]pyridin-2-yl)methyl)-2H-tetrazole-5-carboxamide]", "EC50": "< 1"}
{"molecule": "O=C(NCc1ncn2ccc(Cl)c(F)c12)c1cn(Cc2cc3ccc(C4CC4)cn3c2)nn1", "note": "[Example I-256, N-((7-chloro-8-fluoroimidazo[1,5-a]pyridin-1-yl)methyl)-1-((6-cyclopropylindolizin-2-yl)methyl)-1H-1,2,3-triazole-4-carboxamide]", "EC50": "1 to 10"}
{"molecule": "O=C(NCc1ncn2ccc(Cl)cc12)c1cc(Cc2cn3cc(C4CC4)ccc3n2)on1", "note": "[Example I-176, N-((7-chloroimidazo[1,5-a]pyridin-1-yl)methyl)-5-((6-cyclopropylimidazo[1,2-a]pyridin-2-yl)methyl)isoxazole-3-carboxamide]", "EC50": "1 to 10"}
{"molecule": "O=C(NCc1ncn2ccc(Cl)cc12)c1cnn(Cc2cn3cc(C4CC4)cc(C4CC4C(=O)O)c3n2)c1", "note": "(stereo not shown) [Example I-133, 2-(2-((4-(((7-chloroimidazo[1,5-a]pyridin-1-yl)methyl)carbamoyl)-1H-pyrazol-1-yl)methyl)-6-cyclopropylimidazo[1,2-a]pyridin-8-yl)cyclopropane-1-carboxylic acid]", "EC50": "< 1"}
{"molecule": "CCOC(=O)C1CC1c1nn(Cc2cn3cc(C4CC4)ccc3n2)cc1C(=O)NCc1ncn2ccc(Cl)cc12", "note": "(stereo not shown) [Example I-113, ethyl 2-(4-(((7-chloroimidazo[1,5-a]pyridin-1-yl)methyl)carbamoyl)-1-((6-cyclopropylimidazo[1,2-a]pyridin-2-yl)methyl)-1H-pyrazol-3-yl)cyclopropane-1-carboxylate]", "EC50": "1 to 10"}
{"molecule": "CCOC(=O)c1nc(C(=O)NCc2ncn3ccc(Cl)c(F)c23)cn1Cc1cn2cc(C3CC3)ccc2n1", "note": "[Example I-260]", "EC50": "< 1"}
{"molecule": "C#Cc1ccn2cnc(CNC(=O)c3cnn(Cc4cn5nc(C6CC6)ccc5n4)c3)c2c1", "note": "[Example I-98, 1-((6-cyclopropylimidazo[1,2-b]pyridazin-2-yl)methyl)-N-((7-ethynylimidazo[1,5-a]pyridin-1-yl)methyl)-1H-pyrazole-4-carboxamide]", "EC50": "< 1"}
{"molecule": "N#Cc1cc(C2CC2)cn2cc(Cc3nnc(C(=O)NCc4ncn5ccc(Br)c(F)c45)o3)nc12", "note": "[Example I-154, N-((7-bromo-8-fluoroimidazo[1,5-a]pyridin-1-yl)methyl)-5-((8-cyano-6-cyclopropylimidazo[1,2-a]pyridin-2-yl)methyl)-1,3,4-oxadiazole-2-carboxamide]", "EC50": "< 1"}
{"molecule": "O=C(NCc1ncn2ccc(Cl)c(F)c12)c1cn(Cc2[nH]c3cc(C4CC4)ccc3c2C(=O)O)nn1", "note": "[Example I-274, 2-((4-(((7-chloro-8-fluoroimidazo[1,5-a]pyridin-1-yl)methyl)carbamoyl)-1H-1,2,3-triazol-1-yl)methyl)-6-cyclopropyl-1H-indole-3-carboxylic acid]", "EC50": "100 to 2000"}
{"molecule": "C#Cc1cc(C2CC2)cn2cc(Cn3cc(C(=O)NCc4ncn5ccc(Cl)c(F)c45)nn3)nc12", "note": "[Example I-228, N-((7-chloro-8-fluoroimidazo[1,5-a]pyridin-1-yl)methyl)-1-((6-cyclopropyl-8-ethynylimidazo[1,2-a]pyridin-2-yl)methyl)-1H-1,2,3-triazole-4-carboxamide]", "EC50": "< 1"}
{"molecule": "Cc1c(C2CC2)ccc2nc(Cn3cc(C(=O)NCc4ncn5ccc(Cl)cc45)cn3)cn12", "note": "[Example I-13, N-((7-chloroimidazo[1,5-a]pyridin-1-yl)methyl)-1-((6-cyclopropyl-5-methylimidazo[1,2-a]pyridin-2-yl)methyl)-1H-pyrazole-4-carboxamide]", "EC50": "< 1"}
{"molecule": "O=C(NCc1ncn2ccc(Cl)cc12)c1cnn(Cc2cn3cc(C4CC4)cnc3n2)c1", "note": "[Example I-129, N-((7-chloroimidazo[1,5-a]pyridin-1-yl)methyl)-1-((6-cyclopropylimidazo[1,2-a]pyrimidin-2-yl)methyl)-1H-pyrazole-4-carboxamide]", "EC50": "< 1"}
{"molecule": "O=C(NCc1ncn2ccc(Cl)c(F)c12)c1nnc(C(F)(F)c2cn3cc(C4CC4)ccc3n2)o1", "note": "[Example I-243, N-((7-chloro-8-fluoroimidazo[1,5-a]pyridin-1-yl)methyl)-5-((6-cyclopropylimidazo[1,2-a]pyridin-2-yl)difluoromethyl)-1,3,4-oxadiazole-2-carboxamide]", "EC50": "1 to 10"}
{"molecule": "O=C(NCc1ncn2ccc(Cl)c(F)c12)c1cn(Cc2[nH]c3ccc(C4CC4)cc3c2C(F)(F)F)nn1", "note": "[Example I-211, N-((7-chloro-8-fluoroimidazo[1,5-a]pyridin-1-yl)methyl)-1-((5-cyclopropyl-3-(trifluoromethyl)-1H-indol-2-yl)methyl)-1H-1,2,3-triazole-4-carboxamide]", "EC50": "10 to 100"}
{"molecule": "Cc1cc2nc(Cn3cc(C(=O)NCc4ncn5ccc(Br)cc45)cn3)cn2cc1C1CC1", "note": "[Example I-17, N-((7-bromoimidazo[1,5-a]pyridin-1-yl)methyl)-1-((6-cyclopropyl-7-methylimidazo[1,2-a]pyridin-2-yl)methyl)-1H-pyrazole-4-carboxamide]", "EC50": "1 to 10"}
{"molecule": "O=C(NCc1ncn2ccc(Cl)c(F)c12)c1cn(Cc2cn3cc(C4CC4)cc(Cc4nnco4)c3n2)nn1", "note": "[Example I-210b, 1-((8-((1,3,4-oxadiazol-2-yl)methyl)-6-cyclopropylimidazo[1,2-a]pyridin-2-yl)methyl)-N-((7-chloro-8-fluoroimidazo[1,5-a]pyridin-1-yl)methyl)-1H-1,2,3-triazole-4-carboxamide]", "EC50": "< 1"}
{"molecule": "CC(NC(=O)c1cnn(Cc2cn3cc(C4CC4)ccc3n2)c1)c1ncn2ccc(Br)cc12", "note": "(stereo not shown) [Example I-74, N-(1-(7-bromoimidazo[1,5-a]pyridin-1-yl)ethyl)-1-((6-cyclopropylimidazo[1,2-a]pyridin-2-yl)methyl)-1H-pyrazole-4-carboxamide]", "EC50": "1 to 10"}
{"molecule": "O=C(NCc1ncn2ccc(Br)cc12)c1cnn(Cc2cn3cc(Br)c(Cl)cc3n2)c1", "note": "[Example I-37, 1-((6-bromo-7-chloroimidazo[1,2-a]pyridin-2-yl)methyl)-N-((7-bromoimidazo[1,5-a]pyridin-1-yl)methyl)-1H-pyrazole-4-carboxamide]", "EC50": "10 to 100"}
{"molecule": "Cc1ncc(-c2cc(C3CC3)cn3cc(Cn4cc(C(=O)NCc5ncn6ccc(Cl)c(F)c56)nn4)nc23)s1", "note": "[Example I-257, N-((7-chloro-8-fluoroimidazo[1,5-a]pyridin-1-yl)methyl)-1-((6-cyclopropyl-8-(2-methylthiazol-5-yl)imidazo[1,2-a]pyridin-2-yl)methyl)-1H-1,2,3-triazole-4-carboxamide]", "EC50": "< 1"}
